The subject of this experiment is Mycobacterium tuberculosis. Nature of the experiment: Antimycobacterial activity against Mycobacterium bovis BCG. It counts as functional. The note with it: variant bovis BCG.

For one molecule, MIC results are on record in ChEMBL document CHEMBL2146467, “Generation and exploration of new classes of antitubercular agents: The optimization of oxazolines, oxazoles, thiazolines, thiazoles to imidazo[1,2-a]pyridines and isomeric 5,6-fused scaffolds” (Bioorg Med Chem, 2012).

Values after ≈ are worked out from the molar mass of the structure shown.

Molecule `Cc1ccn2c(C(=O)NCc3ccccc3)c(C)nc2c1` came in with an MIC of 0.3 µM (≈ 0.0838 µg/mL).

By MIC is commonly meant the lowest concentration found to suppress growth. A low value points to greater potency.
